# Experimental data reported in patent publication US6921757B2, “Organic compounds” (Novartis AG, priority 2000, dated 2005).
# pIC50: −log10 of the molar value. Where two headings read alike, the source gives them in different places.
# Legend:
# [1] = test system: TNF-alpha synthesis and release from the human macrophage cell line U937; assay: Inhibition of TNF-alpha synthesis and release from the human macrophage cell line U937; type: cell-based
# Text: Accordingly, the invention also provides a compound of formula I for use as a pharmaceutical. […] Methods (1997) 202:49-57; Renzi et al, Am. Rev. Respir. Dis. (1993) 148:932-939; Tsuyuki et al., J. Clin. Invest. (1995) 96:2924-2931; and Cemadas et al (1999) Am. J. Respir. Cell Mol. Biol. 20:1-8.
# [2] = Systemic side effects: reduction in thymus weight on chronic administration to rats; type: in vivo, Sprague-Dawley rats
# Experimental: Systemic side effects may be assessed by reduction in thymus weight on chronic administration to rats. Male Sprague-Dawley rats (approximately 250 g) are treated once daily for 4 days with the test compound administered at a dose of 1 mg/kg either orally as a hydroxypropyl cellulose suspension or intratracheally under isoflurane anaesthesia as a dry powder lactose blend. On day 5 the rats are sacrificed, autopsy is performed and the weight of the thymus is determined.
# [3] = test system: lung eosinophilia; assay: Inhibition of lung eosinophilia in ovalbumin-sensitised Brown Norway rats; type: in vivo; settings: 3 mg/kg intratracheally as dry powder lactose blend, 24 h before ovalbumin aerosol; lung lavage 24 h after challenge
# Experimental: In vivo anti-inflammatory activity may be assessed by inhibition of lung eosinophilia in rats using a modification of the method of Szarka et al op cit. Male Brown Norway rats (approximately 200 g) are sensitised on day 1 with an intraperitonial injection of 0.5 ml of a mixture of ovalbumin (0.02 mg/ml) and aluminium hydroxide (20 mg/ml), followed by Acellulare pertussis adsorbat vaccine (0.2 ml of a 1:4 dilution with 0.9% saline). The procedure is repeated on day 15 and day 21. […] The lungs are removed and after lavage with Hank's solution (balanced salt solution, 100 ml; EDTA 100 mM, 100 ml; HPES 1M, 10 ml, water 1000 ml), eosinophil numbers in the recovered solution are quantified directly using a Corbas Helios 5Diff apparatus (Hoffman-LaRoche).
# [4] = Homo sapiens, U-937, read-out: IC50 inhibition of TNF-alpha synthesis and release
Structure (SMILES),"pIC50 ([1]; U937 human macrophage cell line, read-out: IC50 inhibition of TNF-alpha synthesis and release)","reduction in thymus weight compared to vehicle control when dosed intratracheally ([2]; 1 mg/kg intratracheally once daily for 4 days, dry powder lactose blend) [%]","reduction in thymus weight compared to vehicle control when dosed orally ([2]; 1 mg/kg orally once daily for 4 days, hydroxypropyl cellulose suspension) [%]",reduction in eosinophil count compared to vehicle control [3] [%],"pIC50 [1, 4]"
COC(=O)[C@@]1(OC(=O)c2cnc(C)cn2)[C@H](C)CC2C3C[C@H](F)C4=CC(=O)C=C[C@]4(C)[C@@]3(Cl)[C@@H](O)C[C@@]21C (some centres unmarked) [Example 99],9.97,70,0,48,–
"COC(=O)[C@@]1(OC(=O)C2CC2)[C@@H](C)CC2C3C[C@H](F)C4=CC(=O)C=C[C@]4(C)[C@@]3(Cl)[C@@H](O)C[C@@]21C (stereo partly drawn) [Example 34, (6S,9R,10S,11S,13S,16S,17R)-9-chloro-17-cyclopropanecarbonyloxy-6-fluoro-11-hydroxy-10,13,16-trimethyl-3-oxo-6,7,8,9,10,11,12,13,14,15,16,17-dodecahydro-3H-cyclopenta[a]phenanthrene-17-carboxylic acid methyl ester]",–,–,–,90,10.00
"COC(=O)[C@@]1(OC(=O)c2sccc2C)[C@H](C)CC2C3C[C@H](F)C4=CC(=O)C=C[C@]4(C)[C@@]3(Cl)[C@@H](O)C[C@@]21C (stereo partly drawn) [Example 26, 3-methylthiophene-2-carboxylic acid (6S,9R,10S,11S,13S,16R,17R)-9-chloro-6-fluoro-11-hydroxy-17-methoxycarbonyl-10,13,16-trimethyl-3-oxo-6,7,8,9,10,11,12,13,14,15,16,17-dodecahydro-3H-cyclopenta[a]phenanthren-17-yl ester]",–,–,–,63,10.62
